These results are taken from US9533990B2, “Inhibitors of secretion of hepatitis B virus antigens” (priority 2010, dated 2017).

What is called melting point is the temperature of the solid-liquid transition. Compound `Fc1cccc(Cl)c1C1C=C(c2ccc(Cl)cc2Cl)Nc2ncnn21` (stereo not shown) [Example 14, 7-(2-Chloro-6-fluorophenyl)-5-(2,4-dichlorophenyl)-4,7-dihydro-[1,2,4]triazolo[1,5-a]pyrimidine] showed a melting point of 209 to 211 °C.
The figure for `Fc1ccc([C@H]2C[C@@H](c3c(F)cccc3Cl)n3ncnc3N2)c(F)c1` (relative stereo) [Example 35, cis-7-(2-Chloro-6-fluorophenyl)-5-(2,4-difluorophenyl)-4,5,6,7-tetrahydro-[1,2,4]triazolo[1,5-a]pyrimidine] is 225 °C.
The figure for `Fc1ccc([C@@H]2C[C@H](c3ccc(Cl)cc3)Nc3ncnn32)c(Cl)c1` (relative stereo) [Example 21, cis-7-(2-Chloro-4-fluorophenyl)-5-(4-chlorophenyl)-4,5,6,7-tetrahydro-[1,2,4]triazolo[1,5-a]pyrimidine] is 224 to 225 °C.
Take `Fc1cccc(Cl)c1[C@@H]1C[C@H](c2ccccc2)Nc2ncnn21` (relative stereo) [Example 37, cis-7-(2-Chloro-6-fluorophenyl)-5-phenyl-4,5,6,7-tetrahydro-[1,2,4]triazolo[1,5-a]pyrimidine]: the melting point is 270 to 271 °C.
The figure for `Fc1cccc(Cl)c1C1C=C(c2ccc3ccccc3c2)Nc2ncnn21` (stereo not shown) [Example 12, 7-(2-Chloro-6-fluorophenyl)-5-(naphthalen-2-yl)-4,7-dihydro-[1,2,4]triazolo[1,5-a]pyrimidine] is 237 °C.
To `Fc1cccc(Cl)c1C1C=C(c2ccc(-c3ccccc3)cc2)Nc2ncnn21` (stereo not shown) [Example 11, 5-([1,1′-Biphenyl]-4-yl)-7-(2-chloro-6-fluorophenyl)-4,7-dihydro-[1,2,4]triazolo[1,5-a]pyrimidine] belongs 267 °C; to `COc1ccc(C2=CC(c3c(F)cccc3Cl)n3ncnc3N2)cc1` (stereo not shown) [Example 10, 7-(2-Chloro-6-fluorophenyl)-5-(4-methoxyphenyl)-4,7-dihydro-[1,2,4]triazolo[1,5-a]pyrimidine], 217 to 218 °C.
To `Fc1cccc(Cl)c1C1C=C(c2ccc(Br)cc2)Nc2ncnn21` (stereo not shown) [Example 8, 5-(4-Bromophenyl)-7-(2-chloro-6-fluorophenyl)-4,7-dihydro-[1,2,4]triazolo[1,5-a]pyrimidine] belongs 242 to 243 °C; to `Clc1ccc([C@H]2C[C@@H](c3ccccc3)n3ncnc3N2)cc1` (relative stereo) [Example 24, cis-5-(4-Chlorophenyl)-7-phenyl-4,5,6,7-tetrahydro-[1,2,4]triazolo[1,5-a]pyrimidine], 210 to 212 °C.
`Fc1cccc(Cl)c1[C@@H]1C[C@H](c2ccc(Cl)c(Cl)c2)Nc2ncnn21` (relative stereo) [Example 33, cis-7-(2-Chloro-6-fluorophenyl)-5-(3,4-dichlorophenyl)-4,5,6,7-tetrahydro-[1,2,4]triazolo[1,5-a]pyrimidine] gave a melting point of 252 to 254 °C.
To `Fc1cccc(Cl)c1[C@@H]1C[C@H](c2cccc(Cl)c2)Nc2ncnn21` (relative stereo) [Example 26, cis-7-(2-Chloro-6-fluorophenyl)-5-(3-chlorophenyl)-4,5,6,7-tetrahydro-[1,2,4]triazolo[1,5-a]pyrimidine] belongs 262 to 263 °C.
In the case of `Fc1ccc(C2=CC(c3c(F)cccc3Cl)n3ncnc3N2)c(F)c1` (stereo not shown) [Example 15, 7-(2-Chloro-6-fluorophenyl)-5-(2,4-difluorophenyl)-4,7-dihydro-[1,2,4]triazolo[1,5-a]pyrimidine], the melting point fell in the range of 186 to 188 °C.
On to `Cc1ccc(C2=CC(c3c(F)cccc3Cl)n3ncnc3N2)cc1C` (stereo not shown) [Example 16, 7-(2-Chloro-6-fluorophenyl)-5-(3,4-dimethylphenyl)-4,7-dihydro-[1,2,4]triazolo[1,5-a]pyrimidine], for which the melting point fell in the range of 217 to 218 °C.
Compound `Cc1ccc([C@H]2C[C@@H](c3c(F)cccc3Cl)n3ncnc3N2)cc1C` (relative stereo) [Example 36, cis-7-(2-Chloro-6-fluorophenyl)-5-(3,4-dimethylphenyl)-4,5,6,7-tetrahydro-[1,2,4]triazolo[1,5-a]pyrimidine] registered a melting point of 223 °C.
The figure for `Fc1ccc(C2=CC(c3c(F)cccc3Cl)n3ncnc3N2)cc1` (stereo not shown) [Example 7, 7-(2-Chloro-6-fluorophenyl)-5-(4-fluorophenyl)-4,7-dihydro-[1,2,4]triazolo[1,5-a]pyrimidine] is 203 to 204 °C; for `COc1ccc([C@H]2C[C@@H](c3c(F)cccc3Cl)n3ncnc3N2)cc1` (relative stereo) [Example 30, cis-7-(2-Chloro-6-fluorophenyl)-5-(4-methoxyphenyl)-4,5,6,7-tetrahydro-[1,2,4]triazolo[1,5-a]pyrimidine] it is 221 to 222 °C.
`Fc1ccc(C2C=C(c3ccc(Cl)cc3)Nc3ncnn32)c(Cl)c1` (stereo not shown) [Example 4, 7-(2-Chloro-4-fluorophenyl)-5-(4-chlorophenyl)-4,7-dihydro-[1,2,4]triazolo[1,5-a]pyrimidine] came in with a melting point of 250 to 251 °C.
The compound `Fc1cccc(Cl)c1[C@@H]1C[C@H](c2ccc(Cl)cc2Cl)Nc2ncnn21` (relative stereo) [Example 34, cis-7-(2-Chloro-6-fluorophenyl)-5-(2,4-dichlorophenyl)-4,5,6,7-tetrahydro-[1,2,4]triazolo[1,5-a]pyrimidine] came in with a melting point of 267 to 269 °C.
Turning to `Fc1cccc(Cl)c1[C@@H]1C[C@H](c2ccc(-c3ccccc3)cc2)Nc2ncnn21` (relative stereo) [Example 31, cis-5-([1,1′-Biphenyl]-4-yl)-7-(2-chloro-6-fluorophenyl)-4,5,6,7-tetrahydro-[1,2,4]triazolo[1,5-a]pyrimidine], the melting point fell in the range of 213 to 215 °C.
The figure for `CCc1ccc([C@H]2C[C@@H](c3c(F)cccc3Cl)n3ncnc3N2)cc1` (relative stereo) [Example 29, cis-7-(2-Chloro-6-fluorophenyl)-5-(4-ethylphenyl)-4,5,6,7-tetrahydro-[1,2,4]triazolo[1,5-a]pyrimidine] is 230 to 231 °C.
For `Clc1ccc([C@H]2C[C@@H](c3c(Cl)cccc3Cl)n3ncnc3N2)cc1` (relative stereo) [Example 19, cis-5-(4-Chlorophenyl)-7-(2,6-dichlorophenyl)-4,5,6,7-tetrahydro-[1,2,4]triazolo[1,5-a]pyrimidine], the melting point was in the range of 246 to 247 °C.
`CC(C)c1ccc([C@@H]2C[C@H](c3ccc(Cl)cc3)Nc3ncnn32)cc1` (relative stereo) [Example 23, cis-5-(4-Chlorophenyl)-7-(4-isopropylphenyl)-4,5,6,7-tetrahydro[1,2,4]triazolo[1,5-a]pyrimidine] came in with a melting point of 194 to 195 °C.
To `Fc1ccc([C@H]2C[C@@H](c3c(F)cccc3Cl)n3ncnc3N2)cc1` (relative stereo) [Example 27, cis-7-(2-Chloro-6-fluorophenyl)-5-(4-fluorophenyl)-4,5,6,7-tetrahydro-[1,2,4]triazolo[1,5-a]pyrimidine] belongs 240 to 241 °C; to `Fc1cccc(Cl)c1[C@@H]1C[C@H](c2ccccn2)Nc2ncnn21` (relative stereo) [Example 38, cis-7-(2-Chloro-6-fluorophenyl)-5-(pyridin-2-yl)-4,5,6,7-tetrahydro-[1,2,4]triazolo[1,5-a]pyrimidine], 232 °C.
To `CCc1ccc(C2=CC(c3c(F)cccc3Cl)n3ncnc3N2)cc1` (stereo not shown) [Example 9, 7-(2-Chloro-6-fluorophenyl)-5-(4-ethylphenyl)-4,7-dihydro-[1,2,4]triazolo[1,5-a]pyrimidine] belongs 220 to 221 °C.
The figure for `Clc1ccc(C2=CC(c3c(Cl)cccc3Cl)n3ncnc3N2)cc1` (stereo not shown) [Example 2, 5-(4-Chlorophenyl)-7-(2,6-dichlorophenyl)-4,7-dihydro-[1,2,4]triazolo[1,5-a]pyrimidine] is 235 °C.
`Fc1cccc(Cl)c1C1C=C(c2ccc(Cl)cc2)Nc2ncnn21` (stereo not shown) [Example 1, 7-(2-Chloro-6-fluorophenyl)-5-(4-chlorophenyl)-4,7-dihydro-[1,2,4]triazolo[1,5-a]pyrimidine]: the melting point was in the range of 213 to 215 °C.
The figure for `Clc1ccc([C@H]2C[C@@H](c3ccccc3Cl)n3ncnc3N2)cc1` (relative stereo) [Example 22, cis-7-(2-Chlorophenyl)-5-(4-chlorophenyl)-4,5,6,7-tetrahydro[1,2,4]triazolo[1,5-a]pyrimidine] is 202 to 204 °C; for `Fc1cccc(Cl)c1-c1cc(-c2ccc(Cl)cc2)nc2ncnn12` [Example 17, 7-(2-Chloro-6-fluorophenyl)-5-(4-chlorophenyl)-[1,2,4]triazolo[1,5-a]pyrimidine] it is 238 to 239 °C; for `Fc1cccc(Cl)c1C1C=C(c2ccccc2Cl)Nc2ncnn21` (stereo not shown) [Example 5, 7-(2-Chloro-6-fluorophenyl)-5-(2-chlorophenyl)-4,7-dihydro-[1,2,4]triazolo[1,5-a]pyrimidine] it is 192 to 193 °C.
The figure for `Fc1cccc(Cl)c1[C@@H]1C[C@H](c2ccccc2Cl)Nc2ncnn21` (relative stereo) [Example 25, cis-7-(2-Chloro-6-fluorophenyl)-5-(2-chlorophenyl)-4,5,6,7-tetrahydro-[1,2,4]triazolo[1,5-a]pyrimidine] is 271 to 272 °C.
To `Fc1cccc(Cl)c1[C@@H]1C[C@H](c2ccc3ccccc3c2)Nc2ncnn21` (relative stereo) [Example 32, cis-7-(2-Chloro-6-fluorophenyl)-5-(naphthalen-2-yl)-4,5,6,7-tetrahydro-[1,2,4]triazolo[1,5-a]pyrimidine] belongs 224 to 225 °C; to `Fc1cccc(Cl)c1[C@@H]1C[C@H](c2ccc(Br)cc2)Nc2ncnn21` (relative stereo) [Example 28, cis-5-(4-Bromophenyl)-7-(2-chloro-6-fluorophenyl)-4,5,6,7-tetrahydro-[1,2,4]triazolo[1,5-a]pyrimidine], 246 to 247 °C.
In turn, `Fc1cccc(Cl)c1C1C=C(c2ccc(Cl)c(Cl)c2)Nc2ncnn21` (stereo not shown) [Example 13, 7-(2-Chloro-6-fluorophenyl)-5-(3,4-dichlorophenyl)-4,7-dihydro-[1,2,4]triazolo[1,5-a]pyrimidine] displayed a melting point of 246 to 247 °C.
